Values of other authors, collected in patent US12702587B2, “Ophthalmic device” (aVISI Ltd., priority 2020, dated 2026).
Counter-ions that a name gives are not always drawn.

Settings: from chitosan nanoparticles; phosphate buffer saline of pH 7.4; in vitro

- release of timolol maleate (duration of slow release): up to 24 hours
SMILES: CC(C)(C)NC[C@H](O)COc1nsnc1N1CCOCC1 [timolol maleate]
